Experimental findings from patent US20110200549A1, “Organic Compounds Suitable For Modulating Fragrance Compositions” (priority 2008, published 2011) are described below.

The target of experiment [1] is T1, CYP2A13 (Homo sapiens, UniProt Q16696).
T1 construct: made in house; host or cells: Sf9 insect cells, recombinant baculovirus
T1 sequence (Q16696 1-494): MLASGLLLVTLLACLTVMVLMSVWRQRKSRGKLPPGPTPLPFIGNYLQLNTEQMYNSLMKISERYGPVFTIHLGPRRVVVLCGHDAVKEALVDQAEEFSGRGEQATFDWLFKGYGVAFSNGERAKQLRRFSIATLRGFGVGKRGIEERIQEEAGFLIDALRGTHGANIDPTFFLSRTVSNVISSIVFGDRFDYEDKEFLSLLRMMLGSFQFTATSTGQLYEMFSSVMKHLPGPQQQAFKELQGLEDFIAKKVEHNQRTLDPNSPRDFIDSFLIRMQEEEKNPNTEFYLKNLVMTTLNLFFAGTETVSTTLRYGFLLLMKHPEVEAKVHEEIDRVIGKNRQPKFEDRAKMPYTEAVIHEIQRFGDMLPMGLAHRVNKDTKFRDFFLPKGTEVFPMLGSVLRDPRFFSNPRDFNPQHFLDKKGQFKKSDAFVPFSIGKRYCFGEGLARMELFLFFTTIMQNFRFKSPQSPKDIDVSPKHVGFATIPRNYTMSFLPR
As to the kind of experiment: CYP2A13 inhibition, coumarin 7-hydroxylation (Umbelliferone fluorescence) in microsomes. The format is biochemical. As to conditions: recombinant CYP2A13 + P450 reductase microsomes, coumarin 0.006 mM, 60 min at 37° C.; read-out: CYP2A13 inhibitor activity IC50. Here is the method:
Compounds that inhibit the activity of CYP2A13 are identified by using a standard reaction established for the enzyme. A known substrate is coumarin, and the product of the enzymatic reaction is 7-hydroxy-coumarin (Umbelliferone) which is strongly fluorescent. When a compound is added to the standard reaction and the formation of Umbelliferone is decreased, the compound is identified as an inhibitor, which can also be a competitive substrate of the enzyme. The compound is used at various concentrations and the concentration-dependent decrease in Umbelliferone formation allows to determine the concentration where the activity of the enzyme is reduced to the 50% level (IC50 value).
A test compound (details see Table 1) was incubated with CYP2A13 in the presence of a cytochrome P450 reductase. CYP2A13 and P450 reductase were employed in form of microsomes. CYP2A13 was produced in Sf9 cells using a recombinant baculovirus, under conditions known to the person skilled in the art, for example, as described in WO 2006/007751. P450 reductase is commercially available (BD Biosciences Gentest, USA). Preferably, the two enzymes are coexpressed in the same insect cells and microsomes prepared which contain both enzymes. The art of coexpression of two enzymes is known, and the coexpression CYP2A13 and P450 reductase is described in WO 2006/007751. […] An MOI of 4 for recombinant CYP2A13 baculovirus combined with an MOI of 3.5 for recombinant P450 reductase baculovirus routinely produced microsomes with considerable activity.
Microsomes were used which contained 7 pmoles CYP2A13. Tris buffer (1 M, pH 7.6) and water were added to give a buffer concentration of 0.1M. The test compound was prepared as a 50 mM stock solution in acetonitrile. The concentration of the standard substrate coumarin was 0.006 mM. Several samples of the test compound were prepared at various concentrations to give different final concentrations in the reaction: 0, 0.005, 0.01, 0.02, 0.05, 0.1 and 0.2 mM. The mixture was incubated for 10 min at 37° C. prior to the initiation of the enzymatic reaction by the addition of 0.005 ml of a solution of 50 mM NADPH in water. The final total volume was 0.2 ml, which is suitable for microtiter plate measurements. The samples were incubated for 60 min at 37° C. After 60 min, the enzymatic reaction was stopped by the addition of 0.02 ml cold 50% trichloroacetic acid (TCA) and incubated at 4° C. for 15 min. 0.005 ml of a solution of 50 mM NADPH in water was added to the control reaction which corresponds to the reaction without test compound and without NADPH, and as a consequence, no Umbelliferone was formed. Denatured proteins and other insoluble parts were separated by centrifugation (10 min, 560×g, room-temperature).
The samples were analysed spectrofluorometrically which allows to detect the formation of Umbelliferone as the enzymatic product of coumarin at an excitation wavelength of 340 nm and an emission wavelength of 480 nm.

In experiment [2] the target is T2, CYP2B6 (Homo sapiens, UniProt P20813).
T2 construct: made in house; host or cells: Sf9 insect cells, recombinant baculoviruses, coexpressed with P450 reductase
T2 sequence (P20813 1-491): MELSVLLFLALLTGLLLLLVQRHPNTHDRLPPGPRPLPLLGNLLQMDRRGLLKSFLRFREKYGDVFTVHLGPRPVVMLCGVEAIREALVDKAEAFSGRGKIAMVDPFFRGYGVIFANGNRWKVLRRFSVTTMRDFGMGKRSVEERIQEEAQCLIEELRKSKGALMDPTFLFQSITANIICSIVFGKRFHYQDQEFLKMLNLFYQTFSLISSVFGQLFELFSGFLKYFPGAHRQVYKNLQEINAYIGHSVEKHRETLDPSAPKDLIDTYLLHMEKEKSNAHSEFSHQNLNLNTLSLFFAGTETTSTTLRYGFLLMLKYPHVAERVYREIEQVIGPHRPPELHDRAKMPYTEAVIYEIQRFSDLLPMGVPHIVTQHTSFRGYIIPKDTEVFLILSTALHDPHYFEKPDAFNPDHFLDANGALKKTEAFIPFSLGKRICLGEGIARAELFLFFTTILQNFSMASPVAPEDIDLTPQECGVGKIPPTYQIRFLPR
As to the kind of experiment: CYP2B6 inhibition, 7-ethoxy-4-trifluoromethyl-coumarin fluorescence assay in microsomes. The format is biochemical. As to conditions: CYP2B6 + P450 reductase microsomes, 7-ethoxy-4-trifluoromethyl-coumarin 6 μM, 40 min at 37° C.; read-out: CYP2B6 inhibitor activity IC50. On the procedure: Test compounds that inhibit the activity of CYP2B6 are identified by using the same principle as described in Example 42, first paragraph.
A test compound (details see Table 2) was incubated with CYP2B6 in the presence of a cytochrome P450 reductase. CYP2B6 and P450 reductase are produced using recombinant baculoviruses and co-expressing the two proteins in Sf9 insect cells as described in Example 42. Alternatively, microsomes containing CYP2B6 and the reductase are commercially available (BD Biosciences Gentest, USA). Microsomes were used which contained 1.5 pmoles CYP2B6. Potassium phosphate buffer final concentration was 100 mM, (1M stock, pH 7.4). The test compound was prepared as a 50 mM stock solution in acetonitrile. The concentration of the standard substrate 7-ethoxy-4-trifluoromethyl-coumarin was 6 μM. Several samples of the test compound were prepared at various concentrations to give different final concentrations in the reaction: 0, 0.005, 0.01, 0.02, 0.05, 0.1 and 0.2 mM. […] The final total volume was 0.2 ml, which is suitable for microtiter plate measurements. The samples were incubated for 40 min at 37° C. After 40 min, the enzymatic reaction was stopped by the addition of […] 0.5M Tris-base/acetonitrile (18:72). 0.005 ml of a solution of 50 mM NADPH in water was added to the control reaction which corresponds to the reaction with test compound and enzyme but without NADPH, and as a consequence, no 4-trifluoromethyl-umbelliferone was formed. Denatured proteins and other insoluble parts were separated by centrifugation (5 min, 1800 rpm, at 10° C.).
The samples were analysed spectrofluorometrically which allows to detect the formation of 4-trifluoromethyl-umbelliferone as the enzymatic product at an excitation wavelength of 410 nm and an emission wavelength of 510 nm.

Consider `CCCCCN(Cc1ccccn1)C(C)=O` [Ex. 22, N-pentyl-N-(pyridin-2-ylmethyl)acetamide], for which the IC50 in experiment [1] was 10 µM.
As for `CCCCCN(CCc1ccncc1)C(C)=O` [Ex. 20, N-pentyl-N-(2-(pyridin-4-yl)ethyl)acetamide], the half-inhibitory concentration (IC50) was 19 µM in experiment [2] and 13 µM in experiment [1].
Turning to `CCCCCN(Cc1ccccc1)C(C)=O` [Ex. 1, N-benzyl-N-pentylacetamide], the IC50 in experiment [2] turned out to be 72 µM; in experiment [1] it was 0.3 µM.
On to `CCCCCN(Cc1ccccn1)C(=O)OC` [Ex. 23, methyl pentyl(pyridin-2-ylmethyl)carbamate], for which the half-maximal inhibitory concentration (IC50) in experiment [1] is 20 µM.
Consider `CCCCCN(C(C)=O)c1ccccc1` [Ex. 2, N-pentyl-N-phenylacetamide], for which the IC50 in experiment [2] was 46 µM; in experiment [1], 0.5 µM.
Consider `CCCCCN(CCc1cccnc1)C(=O)OC` [Ex. 19, methyl pentyl(2-(pyridin-3-yl)ethyl)carbamate], for which, in experiment [1], the IC50 came to 41 µM.
`CCCCC/C(=C\C1CC1)C(=O)NC` [Ex. 38, (E)-2-(cyclopropylmethylene)-N-methylheptanamide]: the 50% inhibitory concentration (IC50) in experiment [1] was 0.8 µM.
In the case of `CCCCCN(C(C)=O)C(=O)C1CC1` [Ex. 33, N-acetyl-N-pentylcyclopropanecarboxamide], the half-inhibitory concentration (IC50) in experiment [2] worked out at 17 µM; in experiment [1], 0.7 µM.
With `CCCCCN(C=O)CC1CC1` [Ex. 36, N-(cyclopropylmethyl)-N-pentylformamide], the concentration for half-maximal inhibition (IC50) in experiment [2] stood at 49 µM; in experiment [1] it was 1.3 µM.
With `CCCCC/C(=C\C1CC1)C(N)=O` [Ex. 41, (E)-2-(cyclopropylmethylene)heptanamide], the IC50 in experiment [1] was 1.1 µM.
As for `CCCCC/C(=C\c1ccccc1)C(=O)N(C)C` [Ex. 39, (E)-2-benzylidene-N,N-dimethylheptanamide], the IC50 in experiment [1] worked out at 3 µM.
For `CCCCN(Cc1ccccc1)C(C)=O` [Ex. 6, N-benzyl-N-butylacetamide], the half-maximal inhibitory concentration (IC50) in experiment [1] was determined as 8 µM.
On to `CCCCCN(CCc1c[nH]cn1)C(=O)OC` [Ex. 28, methyl 2-(1H-imidazol-4-yl)ethyl(pentyl)carbamate], for which the IC50 in experiment [1] is 47 µM.
As for `CCCCCN(CCc1cccnc1)C(C)=O` [Ex. 18, N-pentyl-N-(2-(pyridin-3-yl)ethyl)acetamide], the IC50 in experiment [1] was 25 µM.
Turning to `CCCCCN(C(C)=O)C(=O)OC(C)(C)C` [Ex. 34, tert-butyl acetyl(pentyl)carbamate], the IC50 in experiment [2] is 11 µM; in experiment [1], 1.5 µM.
As to `CCCCCN(CCc1ccccn1)C(C)=O` [Ex. 16, N-pentyl-N-(2-(pyridin-2-yl)ethyl)acetamide], the IC50 in experiment [1] came out at 24 µM.
As to `CCCCCN(Cc1ccncc1)C(C)=O` [Ex. 8, N-pentyl-N-(pyridin-4-ylmethyl)acetamide], the IC50 in experiment [1] worked out at 11 µM.
For `CCCCCN(CC1CC1)C(=O)OC` [Ex. 11, methyl cyclopropylmethyl(pentyl)carbamate], the IC50 was 28 µM in experiment [2] and 3 µM in experiment [1].
On to `CCCCCN(CCc1ccncc1)C(=O)OC` [Ex. 21, methyl pentyl(2-(pyridin-4-yl)ethyl)carbamate], for which the 50% inhibitory concentration (IC50) in experiment [1] came out at 2 µM.
Take `CCCCCN(Cc1cccnc1)C(=O)OC` [Ex. 5, methyl pentyl(pyridin-3-ylmethyl)carbamate]: the 50% inhibitory concentration (IC50) in experiment [1] stood at 22 µM.
In the case of `CC(=O)N(CCc1ccccc1)Cc1ccccc1` [Ex. 35, N-benzyl-N-phenethylacetamide], the half-maximal inhibitory concentration (IC50) in experiment [1] stood at 52 µM.
`CCCCCN(CCc1ccccc1)C(C)=O` [Ex. 3, N-pentyl-N-phenethylacetamide]: the values for the IC50 in experiment [2] and in experiment [1] were 93 µM and 2 µM, respectively.
Consider `CCCCC/C(=C\c1ccccc1)C(=O)NC` [Ex. 37, (E)-2-benzylidene-N-methylheptanamide], for which the half-inhibitory concentration (IC50) in experiment [1] was 0.5 µM.
With `CCCCCN(Cc1cccnc1)C(C)=O` [Ex. 4, N-pentyl-N-(pyridin-3-ylmethyl)acetamide], the 50% inhibitory concentration (IC50) in experiment [1] worked out at 15 µM.
On the same count and under the same terms, to `CCCCCN(Cc1ccncc1)C(=O)OC` [Ex. 9, methyl pentyl(pyridin-4-ylmethyl)carbamate] belongs 17 µM; to `CCCCC/C(=C\C1CC1)C(=O)N(C)C` [Ex. 40, (E)-2-(cyclopropylmethylene)-N,N-dimethylheptanamide], 9 µM.
Turning to `CCCCCN(CCc1c[nH]cn1)C(C)=O` [Ex. 27, N-(2-(1H-imidazol-4-yl)ethyl)-N-pentylacetamide], the values for the IC50 in experiment [2] and in experiment [1] were 2.5 µM and 34 µM, respectively.
In the case of `CCCCCN(Cc1ccccc1)C(=O)OC` [Ex. 29, methyl benzyl(pentyl)carbamate], the half-maximal inhibitory concentration (IC50) in experiment [2] is 20 µM; in experiment [1] it was 1.6 µM.
`CCCCCN(CCc1ccccn1)C(=O)OC` [Ex. 17, methyl pentyl(2-(pyridin-2-yl)ethyl)carbamate]: in experiment [1], the IC50 was determined as 44 µM.
